Experimental data from US20120027741A1 (priority 2009, published 2012).
Structures can show the parent of a compound that is named as a salt. Where two headings read alike, the source gives them in different places.

How the values were obtained:
Assay type in all cases: in vivo
Sphaerotheca fuliginea = assay: Sphaerotheca test (cucumbers)/protective; conditions: 7 days after inoculation
Experimental: Sphaerotheca Test (Cucumbers)/Protective
(§1) Solvent: • 24,5 parts by weight of acetone • 24,5 parts by weight of dimethylacetamide
(§2) Emulsifier: • 1 part by weight of alkylaryl polyglycol ether
(§3) To produce a suitable preparation of active compound, 1 part by weight of active compound is mixed with the stated amounts of solvent and emulsifier, and the concentrate is diluted with water to the desired concentration.
To test for protect activity, young plants are sprayed with the preparation of active compound at the stated rate of application. After the spray coating has dried on, the plants are inoculated with to an aqueous spore suspension of Sphaerotheca fuliginea. The plants are then placed in a greenhouse at approximately 23° C. and a relative atmospheric humidity of approximately 70%.
The test is evaluated 7 days after the inoculation. 0% means an efficacy which corresponds to that of the control, while an efficacy of 100% means that no disease is observed.

Phytophthora infestans = assay: whole plant or invertebrate; conditions: tomatoes, 3 days after inoculation; for pest or weed control at 12.5 ppm: read-out: Efficacy in % found, Table 2
Botrytis cinerea = assay: Botrytis test (beans)/protective; conditions: 48 h, 2 days after inoculation, read-out: Efficacy in % found; for pest or weed control at 5 ppm: Table 9, 5 ppm a.i.; for pest or weed control at 10 ppm: Table 9, 10 ppm a.i.
Experimental: Botrytis Test (Beans)/Protective
as §1, §2, §3
To test for protective activity, young plants are sprayed with the preparation of active compound. After the spray coating has dried on, 2 small pieces of agar covered with growth of Botrytis cinerea are placed on each leaf. The inoculated plants are placed in a darkened chamber at 20° C. and a relative atmospheric humidity of 100%.
2 days after the inoculation, the size of the lesions on the leaves is evaluated. 0% means an efficacy which corresponds to that of the control, while an efficacy of 100% means that no disease is observed.

Pythium ultimum = assay: Pythium test (cotton)/seed treatment; conditions: emerged seedlings after 7 days
Experimental: Pythium Test (Cotton)/Seed Treatment
The test is performed under greenhouse conditions.
Cotton seeds, treated with the active compound or compound combinations, solved in N-methyl-2-pyrrolidon and diluted with water to the desired dosages, were sown in 6*6 cm pots containing 4 cm of a 1:1 mix of steamed field soil and sand.
Perlite was incubated with mycelium fragments of Pythium ultimum. 1 ml of infected perlite was scattered between the treated cotton seeds. Seeds were then covered by light expanded clay aggregate. Pots were incubated in the greenhouse 7 days at 20° C. and 80% relative humidity.
Assessment consisted of counting of emerged seedlings. 0% means an efficacy which to corresponds to that of the control, while an efficacy of 100% means that all seedlings have emerged.

[1] = Podosphaera fuliginea, 168 h, Table 7, 1 ppm a.i., read-out: Efficacy in % found
[2] = Phytophthora infestans, 72 h, read-out: Efficacy in % found, Table 1, 0.4 ppm a.i.
[3] = Phytophthora infestans, 72 h, read-out: Efficacy in % found, Table 1, 40 ppm a.i.
[4] = Phytophthora infestans, 72 h, 12.5 ppm a.i.

Molecule: Fc1ccc([C@]2(Cn3cncn3)O[C@H]2c2ccccc2Cl)cc1 (racemic) [epoxiconazole]
- pest or weed control at 1 ppm (Sphaerotheca fuliginea; [1]): 63%

Molecule: C[C@@]1(c2ccc(Oc3ccccc3)cc2)OC(=O)N(Nc2ccccc2)C1=O (racemic) [famoxadone]
- pest or weed control at 0.4 ppm (Phytophthora infestans; [2]): 23%

Molecule: Cn1cc(C(=O)Nc2ccccc2-c2cc(F)c(F)c(F)c2)c(C(F)F)n1 [3-(difluoromethyl)-1-methyl-N-(3′,4′,5′-trifluorobiphenyl-2-yl)-1H-pyrazole-4-carboxamide]
- pest or weed control at 100 ppm (Phytophthora infestans; Phytophthora infestans, 72 h, read-out: Efficacy in % found, Table 3, 100 ppm a.i.): 35%
- pest or weed control at 5 ppm (Botrytis cinerea): 65%

Molecule: Cc1cc(C(F)(F)F)nn1CC(=O)N1CCC(c2nc(C(=O)N(C)[C@@H]3CCCc4ccccc43)cs2)CC1 [N-methyl-2-(1-{[5-methyl-3-(trifluoromethyl)-1H-pyrazol-1-yl]acetyl}piperidin-4-yl)-N-[(1R)-1,2,3,4-tetrahydronaphthalen-1-yl]-1,3-thiazole-4-carboxamide]
- pest or weed control at 0.1 ppm (Phytophthora infestans; Phytophthora infestans, 72 h, read-out: Efficacy in % found, Table 1, 0.1 ppm a.i.): 48%

Molecule: CCCCCCCCc1c(CC)nc2ncnn2c1N [ametoctradin]
- Efficacy in % found (Phytophthora infestans; Table 1, 1 ppm a.i.): 22%

Molecule: CO/C=C(/C(=O)OC)c1ccccc1Oc1cc(Oc2ccccc2C#N)ncn1 [azoxystrobin]
- Efficacy in % found (Phytophthora infestans; Table 1, 0.4 ppm a.i.): 30%
- Efficacy in % found (Sphaerotheca fuliginea; Table 8, 1 ppm a.i.): 30%

Molecule: COC(=O)[C@@H](C)N(C(=O)Cc1ccccc1)c1c(C)cccc1C [benalaxyl-M]
- Efficacy in % found (Pythium ultimum; Table 11, 1 g a.i./dt): 4%
- Efficacy in % found (Phytophthora infestans; Table 5, 1 ppm a.i.): 28%

Molecule: CC(C)[C@H](NC(=O)O)C(=O)N[C@H](C)c1nc2ccc(F)cc2s1 [benthiavalicarb]
- Efficacy in % found (Phytophthora infestans; Table 1, 0.1 ppm a.i.): 48%

Molecule: Cn1cc(C(=O)Nc2ccc(F)cc2-c2ccc(Cl)c(Cl)c2)c(C(F)F)n1 [bixafen, N-(3′,4′-dichloro-5-fluorobiphenyl-2-yl)-3-(difluoromethyl)-1-methyl-1H-pyrazole-4-carboxamide]
- pest or weed control at 40 ppm (Phytophthora infestans; [3]): 18%
- pest or weed control at 1 ppm (Sphaerotheca fuliginea; Podosphaera fuliginea, 168 h, Table 8, 1 ppm a.i., read-out: Efficacy in % found): 0%

Molecule: O=C(Nc1ccccc1-c1ccc(Cl)cc1)c1cccnc1Cl [boscalid]
- pest or weed control at 40 ppm (Phytophthora infestans; [3]): 26%
- pest or weed control at 10 ppm (Botrytis cinerea): 73%

Molecule: N#Cc1c(Cl)c(Cl)c(Cl)c(C#N)c1Cl [chlorothalonil]
- pest or weed control at 12.5 ppm (Phytophthora infestans; [4]): 20%

Molecule: [Cu+2].[OH-].[OH-] [copper hydroxide]
- Efficacy in % found (Phytophthora infestans; Table 2, 6.25 ppm a.i.): 73%

Molecule: [Cl-].[Cu+2].[Cu+2].[OH-].[OH-].[OH-] [copper oxychloride]
- Efficacy in % found (Phytophthora infestans; Table 2, 6.25 ppm a.i.): 60%

Molecule: Cc1ccc(-c2c(Cl)nc(C#N)n2S(=O)(=O)N(C)C)cc1 [cyazofamid]
- pest or weed control at 0.4 ppm (Phytophthora infestans; [2]): 49%

Molecule: CCNC(=O)NC(=O)/C(C#N)=N/OC [cymoxanil]
- pest or weed control at 1.25 ppm (Phytophthora infestans; Phytophthora infestans, 72 h, read-out: Efficacy in % found, Table 6, 1.25 ppm a.i.): 29%

Molecule: COc1ccc(C(=CC(=O)N2CCOCC2)c2ccc(Cl)cc2)cc1OC [dimethomorph]
- pest or weed control at 0.4 ppm (Phytophthora infestans; [2]): 41%

Molecule: CSC1=N[C@@](C)(c2ccccc2)C(=O)N1Nc1ccccc1 [fenamidone]
- Efficacy in % found (Pythium ultimum; Table 11, 1 g a.i./dt): 4%
- pest or weed control at 0.4 ppm (Phytophthora infestans; [2]): 57%

Molecule: CC1(C(=O)Nc2ccc(O)c(Cl)c2Cl)CCCCC1 [fenhexamid]
- pest or weed control at 5 ppm (Botrytis cinerea): 81%

Molecule: O=[N+]([O-])c1cc(C(F)(F)F)c(Cl)c([N+](=O)[O-])c1Nc1ncc(C(F)(F)F)cc1Cl [fluazinam]
- pest or weed control at 2 ppm (Phytophthora infestans; Phytophthora infestans, 72 h, read-out: Efficacy in % found, Table 1, 2 ppm a.i.): 38%

Molecule: O=C(NCc1ncc(C(F)(F)F)cc1Cl)c1c(Cl)cccc1Cl [fluopicolide]
- Efficacy in % found (Pythium ultimum; Table 11, 10 g a.i./dt): 26%
- Efficacy in % found (Phytophthora infestans; Table 1, 0.4 ppm a.i.): 18%

Molecule: O=C(NCCc1ncc(C(F)(F)F)cc1Cl)c1ccccc1C(F)(F)F [fluopyram, N-{2-[3-chloro-5-(trifluoromethyl)pyridin-2-yl]ethyl}-2-(trifluoromethyl)benzamide]
- pest or weed control at 25 ppm (Phytophthora infestans; Phytophthora infestans, 72 h, read-out: Efficacy in % found, Table 3, 25 ppm a.i.): 9%
- pest or weed control at 10 ppm (Botrytis cinerea): 70%

Molecule: CO/N=C(/C1=NOCCO1)c1ccccc1Oc1ncnc(Oc2ccccc2Cl)c1F [fluoxastrobin]
- pest or weed control at 0.4 ppm (Phytophthora infestans; [2]): 36%

Molecule: O=c1c2cc(F)ccc2nc(-n2cncn2)n1-c1ccc(Cl)cc1Cl [fluquinconazole]
- pest or weed control at 0.5 ppm (Sphaerotheca fuliginea; Podosphaera fuliginea, 168 h, Table 7, 0.5 ppm a.i., read-out: Efficacy in % found): 63%

Molecule: O=C1c2ccccc2C(=O)N1SC(Cl)(Cl)Cl [folpet]
- pest or weed control at 50 ppm (Botrytis cinerea; Table 10, 50 ppm a.i.): 79%

Molecule: CCO[PH](=O)O [fosetyl-Al]
- Efficacy in % found (Phytophthora infestans; Table 2, 12.5 ppm a.i.): 0%

Molecule: CC(C)NC(=O)N1CC(=O)N(c2cc(Cl)cc(Cl)c2)C1=O [iprodione]
- pest or weed control at 50 ppm (Botrytis cinerea; Table 9, 50 ppm a.i.): 70%

Molecule: Cc1ccc(C(C)NC(=O)[C@@H](NC(=O)OC(C)C)C(C)C)cc1 (some centres unmarked) [iprovalicarb]
- Efficacy in % found (Phytophthora infestans; Table 1, 0.4 ppm a.i.): 0%

Molecule: CC(C)C1C2CCC1c1c(NC(=O)c3cn(C)nc3C(F)F)cccc12 (centres unmarked) [isopyrazam]
- Efficacy in % found (Phytophthora infestans; Table 1, 40 ppm a.i.): 20%

Molecule: C#CCOc1ccc(CCNC(=O)C(OCC#C)c2ccc(Cl)cc2)cc1OC (centres unmarked) [mandipropamid]
- Efficacy in % found (Pythium ultimum; Table 11, 10 g a.i./dt): 0%
- Efficacy in % found (Phytophthora infestans; Table 1, 0.4 ppm a.i.): 84%

Molecule: COCC(=O)N(c1c(C)cccc1C)[C@H](C)C(=O)OC [mefenoxam]
- Efficacy in % found (Pythium ultimum; Table 11, 0.1 g a.i./dt): 48%

Molecule: Cc1nn(C)c(F)c1C(=O)Nc1ccccc1C(C)CC(C)C (centres unmarked) [penflufen]
- Efficacy in % found (Phytophthora infestans; Table 1, 40 ppm a.i.): 16%

Molecule: CC(C)CC(C)c1sccc1NC(=O)c1cn(C)nc1C(F)(F)F (centres unmarked) [penthiopyrad]
- pest or weed control at 40 ppm (Phytophthora infestans; [3]): 31%

Molecule: OP(O)O [phosphorous acid]
- Efficacy in % found (Phytophthora infestans; Table 2, 12.5 ppm a.i.): 0%

Molecule: CCCN(CCOc1c(Cl)cc(Cl)cc1Cl)C(=O)n1ccnc1 [prochloraz]
- pest or weed control at 100 ppm (Phytophthora infestans; Phytophthora infestans, 72 h, read-out: Efficacy in % found, Table 4, 100 ppm a.i.): 26%

Molecule: CCCOC(=O)NCCCN(C)C [propamocarb-HCl]
- pest or weed control at 12.5 ppm (Phytophthora infestans; [4]): 20%

Molecule: CCCC1COC(Cn2cncn2)(c2ccc(Cl)cc2Cl)O1 (centres unmarked) [propiconazole]
- pest or weed control at 1 ppm (Sphaerotheca fuliginea; [1]): 13%

Molecule: OC(Cc1ccccc1Cl)(Cn1nc[nH]c1=S)C1(Cl)CC1 (centres unmarked) [prothioconazole]
- pest or weed control at 1 ppm (Sphaerotheca fuliginea; [1]): 50%

Molecule: COC(=O)N(OC)c1ccccc1COc1ccn(-c2ccc(Cl)cc2)n1 [pyraclostrobin]
- pest or weed control at 0.4 ppm (Phytophthora infestans; [2]): 28%

Molecule: Cc1cc(C)nc(Nc2ccccc2)n1 [pyrimethanil]
- pest or weed control at 25 ppm (Botrytis cinerea; Table 9, 25 ppm a.i.): 30%

Molecule: Cn1cc(C(=O)Nc2ccccc2C2CC2C2CC2)c(C(F)F)n1 (centres unmarked) [sedaxane]
- Efficacy in % found (Phytophthora infestans; Table 1, 40 ppm a.i.): 37%

Molecule: CC(C)(C)C(O)(CCc1ccc(Cl)cc1)Cn1cncn1 (centres unmarked) [tebuconazole]
- pest or weed control at 2 ppm (Sphaerotheca fuliginea; Podosphaera fuliginea, 168 h, Table 7, 2 ppm a.i., read-out: Efficacy in % found): 13%

Molecule: CC(C)(C)C(O)C(Oc1ccc(Cl)cc1)n1cncn1 (centres unmarked) [triadimenol]
- pest or weed control at 1 ppm (Sphaerotheca fuliginea; [1]): 38%

Molecule: CON=C(C(=O)OC)c1ccccc1CON=C(C)c1cccc(C(F)(F)F)c1 [trifloxystrobin]
- pest or weed control at 2.5 ppm (Sphaerotheca fuliginea; Podosphaera fuliginea, 168 h, Table 7, 2.5 ppm a.i., read-out: Efficacy in % found): 58%

Molecule: CCC(C)(NC(=O)c1cc(Cl)c(C)c(Cl)c1)C(=O)CCl (centres unmarked) [zoxamide]
- pest or weed control at 0.4 ppm (Phytophthora infestans; [2]): 16%

Molecule: mancozeb
- Efficacy in % found (Phytophthora infestans; Table 1, 20 ppm a.i.): 33%

Molecule: metiram
- Efficacy in % found (Phytophthora infestans; Table 4, 100 ppm a.i.): 26%

Molecule: propineb
- Efficacy in % found (Phytophthora infestans; Table 2, 6.25 ppm a.i.): 63%
